# Experimental data from patent US20230210797A1, “PREVENTING AND TREATING HYPOGLYCEMIA” (DIAMYD MEDICAL AB, priority 2019, published 2023).
# Experiments:
# growth hormone = experiment: Hypoglycemic clamp: plasma growth hormone levels; format: in vivo, human; conditions: for Growth hormone levels, change from baseline, Mean / Growth hormone levels, change from baseline, Median / Growth hormone levels, observed value, Mean / Growth hormone levels, observed value, Median: C-peptide undetectable, n=5
# Protocol: (§1) In order to evaluate the counterregulatory hormone response to hypoglycemia, a hypoglycemic clamp will be performed. The Hypoglycemic Clamp must be performed according to the instructions in the Operations Manual. (Appendix 3)
# (§2) The patient should: • Come to the study site following an overnight fast (>10 hours), i.e. the patient may not eat but is permitted to drink water • Not have taken the Remygen and, if applicable, Alprazolam dose in the morning • Not take short acting/direct acting insulin within 6 hours before the investigation. • The patient is allowed to take base-insulin day/night before, but not in the morning before the investigation.
# (§3) Patients with CSII (insulin pump) must continue with their basal dose insulin, but not add bolus dose during the last 6 hours before the investigation.
# (§4) If a patient has a blood sugar level <4 mmol/L in the morning of the scheduled visit, the patient is allowed to take dextrose tablets and then come to the study site. The patient is allowed to perform the investigation if the blood sugar level is >4 mmol/L.
# (§5) In the dose-escalation part of the study, the patient will take study drug 30 min prior to start of the hypoglycemic clamp. In the main study, the study drug will instead be taken after finalization of the hypoglycemic clamp. Baseline blood samples will be obtained for glucose, glucagon, epinephrine, norepinephrine, growth hormone and cortisol. The clamp will then be initiated by an intravenous insulin infusion at a rate of 2 mU×kg^−1×min^−1. Glucose 100 mg/ml will then be administered in variable infusion rates to clamp the blood glucose concentration at 5.5 mmol/land then at 2.5 mmol/land kept stable for 30 min. Blood glucose will be evaluated repeatedly in order to find the optimal glucose infusion rate. Blood sampling to determined levels of counterregulatory hormones as described above will be performed at each of these target levels when a stable glucose concentration has been reached. The insulin infusion will thereafter be terminated and the patient is allowed to eat and will be observed until normoglycemia is achieved. If necessary, additional glucose administration will be given to allow blood glucose concentrations to normalize.
# (§6) Plasma glucose was first lowered to normoglycemic levels (5.5 mmol/L) and hormone levels monitored, and then to hypoglycemic levels (2.5 mmol/L) and hormone levels monitored. Difference was calculated as a measurement of the response to hypoglycemia.
# glucagon = experiment: Hypoglycemic clamp: plasma glucagon levels; format: in vivo, human; conditions: for Glucagon levels, Change from baseline, Mean (SD) / Glucagon levels, Change from baseline, Median (Min, Max) / Glucagon levels, Observed value, Mean (SD) / Glucagon levels, Observed value, Median (Min, Max): C-peptide undetectable
# Protocol: as §1, §2, §3, §4, §5, §6
# [1] = Visit 5, 200 mg GABA per day, event 2.5 mmol/L
# [2] = Visit 5, 200 mg GABA per day, event 5.5 mmol/L
# [3] = Visit 5, 200 mg GABA per day, event Baseline
# [4] = Visit 5, 200 mg GABA per day, event Diff 2.5-5.5 mmol/L
# [5] = Visit 7, 600 mg GABA per day, event 2.5 mmol/L
# [6] = Visit 7, 600 mg GABA per day, event 5.5 mmol/L
# [7] = Visit 7, 600 mg GABA per day, event Baseline
# [8] = Visit 7, 600 mg GABA per day, event Diff 2.5-5.5 mmol/L
# [9] = Visit 9, 1200 mg GABA per day, event 2.5 mmol/L
# [10] = Visit 9, 1200 mg GABA per day, event 5.5 mmol/L
# [11] = Visit 9, 1200 mg GABA per day, event Baseline
# [12] = Visit 9, 1200 mg GABA per day, event Diff 2.5-5.5 mmol/L
# [13] = change in levels when clamping to 2.5 mmol/L from 5.5 mmol/L
# [14] = Visit 5, 200 mg GABA per day, Event 2.5 mmol/L
# [15] = Visit 5, 200 mg GABA per day, Event 5.5 mmol/L
# [16] = Visit 5, 200 mg GABA per day, Event Baseline
# [17] = Visit 5, 200 mg GABA per day, Event Diff 2.5-5.5 mmol/L
# [18] = Visit 7, 600 mg GABA per day, Event 2.5 mmol/L
# [19] = Visit 7, 600 mg GABA per day, Event 5.5 mmol/L
# [20] = Visit 7, 600 mg GABA per day, Event Baseline
# [21] = Visit 7, 600 mg GABA per day, Event Diff 2.5-5.5 mmol/L
# [22] = Visit 9, 1200 mg GABA per day, Event 2.5 mmol/L
# [23] = Visit 9, 1200 mg GABA per day, Event 5.5 mmol/L
# [24] = Visit 9, 1200 mg GABA per day, Event Baseline
# [25] = Visit 9, 1200 mg GABA per day, Event Diff 2.5-5.5 mmol/L
smiles,measurement,setting,value
"NCCCC(=O)O [GABA, Gamma-amino butyric acid]","Growth hormone levels, change from baseline, Mean",growth hormone; [1],4.560 µg/L
same,"Growth hormone levels, change from baseline, Median",growth hormone; [1],3.400 µg/L
same,"Growth hormone levels, observed value, Mean",growth hormone; [1],11.632 µg/L
same,"Growth hormone levels, observed value, Median",growth hormone; [1],4.000 µg/L
same,"Growth hormone levels, change from baseline, Mean",growth hormone; [2],-0.802 µg/L
same,"Growth hormone levels, change from baseline, Median",growth hormone; [2],0.000 µg/L
same,"Growth hormone levels, observed value, Mean",growth hormone; [2],2.110 µg/L
same,"Growth hormone levels, observed value, Median",growth hormone; [2],0.070 µg/L
same,"Growth hormone levels, change from baseline, Mean",growth hormone; [3],0.475 µg/L
same,"Growth hormone levels, change from baseline, Median",growth hormone; [3],0.035 µg/L
same,"Growth hormone levels, observed value, Mean",growth hormone; [3],0.630 µg/L
same,"Growth hormone levels, observed value, Median",growth hormone; [3],0.080 µg/L
same,"Growth hormone levels, change from baseline, Mean",growth hormone; [4],5.362 µg/L
same,"Growth hormone levels, change from baseline, Median",growth hormone; [4],4.000 µg/L
same,"Growth hormone levels, observed value, Mean",growth hormone; [4],9.522 µg/L
same,"Growth hormone levels, observed value, Median",growth hormone; [4],3.440 µg/L
same,"Growth hormone levels, change from baseline, Mean",growth hormone; [5],10.068 µg/L
same,"Growth hormone levels, change from baseline, Median",growth hormone; [5],9.000 µg/L
same,"Growth hormone levels, observed value, Mean",growth hormone; [5],17.140 µg/L
same,"Growth hormone levels, observed value, Median",growth hormone; [5],11.700 µg/L
same,"Growth hormone levels, change from baseline, Mean",growth hormone; [6],-1.812 µg/L
same,"Growth hormone levels, change from baseline, Median",growth hormone; [6],-0.340 µg/L
same,"Growth hormone levels, observed value, Mean",growth hormone; [6],1.100 µg/L
same,"Growth hormone levels, observed value, Median",growth hormone; [6],0.160 µg/L
same,"Growth hormone levels, change from baseline, Mean",growth hormone; [7],2.098 µg/L
same,"Growth hormone levels, change from baseline, Median",growth hormone; [7],0.090 µg/L
same,"Growth hormone levels, observed value, Mean",growth hormone; [7],2.253 µg/L
same,"Growth hormone levels, observed value, Median",growth hormone; [7],0.140 µg/L
same,"Growth hormone levels, change from baseline, Mean",growth hormone; [8],11.880 µg/L
same,"Growth hormone levels, observed value, Mean",growth hormone; [8],16.040 µg/L
same,"Growth hormone levels, observed value, Median",growth hormone; [8],10.820 µg/L
same,"Growth hormone levels, change from baseline, Mean",growth hormone; [9],7.388 µg/L
same,"Growth hormone levels, change from baseline, Median",growth hormone; [9],7.900 µg/L
same,"Growth hormone levels, observed value, Mean",growth hormone; [9],14.460 µg/L
same,"Growth hormone levels, observed value, Median",growth hormone; [9],14.000 µg/L
same,"Growth hormone levels, change from baseline, Mean",growth hormone; [10],-1.468 µg/L
same,"Growth hormone levels, change from baseline, Median",growth hormone; [10],-0.210 µg/L
same,"Growth hormone levels, observed value, Mean",growth hormone; [10],1.444 µg/L
same,"Growth hormone levels, observed value, Median",growth hormone; [10],0.170 µg/L
same,"Growth hormone levels, change from baseline, Median",growth hormone; [11],0.100 µg/L
same,"Growth hormone levels, observed value, Mean",growth hormone; [11],0.461 µg/L
same,"Growth hormone levels, observed value, Median",growth hormone; [11],0.170 µg/L
same,"Growth hormone levels, change from baseline, Mean",growth hormone; [12],8.856 µg/L
same,"Growth hormone levels, change from baseline, Median",growth hormone; [12],6.900 µg/L
same,"Growth hormone levels, observed value, Mean",growth hormone; [12],13.016 µg/L
same,"Growth hormone levels, observed value, Median",growth hormone; [12],8.600 µg/L
same,"Counter regulatory response of Growth hormone, effect of GABA treatment",growth hormone; [13],increased
same,"Normoglycemic levels of Growth hormone, effect of GABA treatment",growth hormone; clamped to 5.5 mmol/L,decrease
same,"Glucagon levels, Change from baseline, Mean (SD)",glucagon; [14],2.12 pmol/L
same,"Glucagon levels, Change from baseline, Median (Min, Max)",glucagon; [14],1.60 pmol/L
same,"Glucagon levels, Observed value, Mean (SD)",glucagon; [14],4.88 (2.44) pmol/L
same,"Glucagon levels, Observed value, Median (Min, Max)",glucagon; [14],4.80 pmol/L
same,"Glucagon levels, Change from baseline, Mean (SD)",glucagon; [15],-0.11 pmol/L
same,"Glucagon levels, Change from baseline, Median (Min, Max)",glucagon; [15],0.00 pmol/L
same,"Glucagon levels, Observed value, Mean (SD)",glucagon; [15],2.08 (1.33) pmol/L
same,"Glucagon levels, Observed value, Median (Min, Max)",glucagon; [15],2.20 pmol/L
same,"Glucagon levels, Change from baseline, Mean (SD)",glucagon; [16],0.46 pmol/L
same,"Glucagon levels, Change from baseline, Median (Min, Max)",glucagon; [16],0.60 pmol/L
same,"Glucagon levels, Observed value, Mean (SD)",glucagon; [16],3.92 (1.03) pmol/L
same,"Glucagon levels, Observed value, Median (Min, Max)",glucagon; [16],3.60 pmol/L
same,"Glucagon levels, Change from baseline, Mean (SD)",glucagon; [17],2.23 pmol/L
same,"Glucagon levels, Change from baseline, Median (Min, Max)",glucagon; [17],1.85 pmol/L
same,"Glucagon levels, Observed value, Mean (SD)",glucagon; [17],2.80 (2.07) pmol/L
same,"Glucagon levels, Observed value, Median (Min, Max)",glucagon; [17],2.60 pmol/L
same,"Glucagon levels, Change from baseline, Mean (SD)",glucagon; [18],1.64 pmol/L
same,"Glucagon levels, Change from baseline, Median (Min, Max)",glucagon; [18],1.40 pmol/L
same,"Glucagon levels, Observed value, Median (Min, Max)",glucagon; [18],4.20 pmol/L
same,"Glucagon levels, Change from baseline, Mean (SD)",glucagon; [19],-0.66 pmol/L
same,"Glucagon levels, Change from baseline, Median (Min, Max)",glucagon; [19],-0.60 pmol/L
same,"Glucagon levels, Observed value, Mean (SD)",glucagon; [19],1.53 (1.32) pmol/L
same,"Glucagon levels, Observed value, Median (Min, Max)",glucagon; [19],0.75 pmol/L
same,"Glucagon levels, Change from baseline, Mean (SD)",glucagon; [20],-0.42 pmol/L
same,"Glucagon levels, Change from baseline, Median (Min, Max)",glucagon; [20],-0.70 pmol/L
same,"Glucagon levels, Observed value, Mean (SD)",glucagon; [20],3.04 (0.66) pmol/L
same,"Glucagon levels, Observed value, Median (Min, Max)",glucagon; [20],3.10 pmol/L
same,"Glucagon levels, Change from baseline, Mean (SD)",glucagon; [21],2.30 pmol/L
same,"Glucagon levels, Change from baseline, Median (Min, Max)",glucagon; [21],2.10 pmol/L
same,"Glucagon levels, Observed value, Mean (SD)",glucagon; [21],2.87 (1.96) pmol/L
same,"Glucagon levels, Observed value, Median (Min, Max)",glucagon; [21],2.95 pmol/L
same,"Glucagon levels, Change from baseline, Mean (SD)",glucagon; [22],3.16 pmol/L
same,"Glucagon levels, Change from baseline, Median (Min, Max)",glucagon; [22],3.30 pmol/L
same,"Glucagon levels, Observed value, Mean (SD)",glucagon; [22],5.92 (3.70) pmol/L
same,"Glucagon levels, Observed value, Median (Min, Max)",glucagon; [22],5.60 pmol/L
same,"Glucagon levels, Change from baseline, Mean (SD)",glucagon; [23],-0.58 pmol/L
same,"Glucagon levels, Change from baseline, Median (Min, Max)",glucagon; [23],-0.80 pmol/L
same,"Glucagon levels, Observed value, Mean (SD)",glucagon; [23],1.61 (1.18) pmol/L
same,"Glucagon levels, Observed value, Median (Min, Max)",glucagon; [23],0.75 pmol/L
same,"Glucagon levels, Change from baseline, Mean (SD)",glucagon; [24],0.96 pmol/L
same,"Glucagon levels, Change from baseline, Median (Min, Max)",glucagon; [24],0.50 pmol/L
same,"Glucagon levels, Observed value, Median (Min, Max)",glucagon; [24],3.90 pmol/L
same,"Glucagon levels, Change from baseline, Mean (SD)",glucagon; [25],3.74 pmol/L
same,"Glucagon levels, Change from baseline, Median (Min, Max)",glucagon; [25],3.30 pmol/L
same,"Glucagon levels, Observed value, Mean (SD)",glucagon; [25],4.31 (4.33) pmol/L
same,"Glucagon levels, Observed value, Median (Min, Max)",glucagon; [25],2.60 pmol/L
same,"Counter regulatory response of Glucagon, effect of GABA treatment",glucagon; [13],increased
same,"Normoglycemic levels of Glucagon, effect of GABA treatment",glucagon; clamped to 5.5 mmol/L,decrease
same,"Circulating glucagon concentrations, effect of GABA",glucagon; type 1 diabetes individuals with pathologically increased glucagon,lower
